Reference: patent publication US10052392B2, “Low molecular weight polyethylene glycol drug conjugates having improved drug biological activity” (JENKEM TECHNOLOGY CO., LTD. (TIANJIN), priority 2013, dated 2018)
Read-outs that look alike come from different tables or passages of the source.

Columns and labels:
K562 = experiment: Inhibition of cell proliferation, CTG method, 72 hours; assay type: cell-based; conditions: K562 cells
Protocol: (§1) Cells are cultured under a complete culture medium; when cells are attached to the wall, drug of different concentrations is added in each tumor cell line for treatment, and a positive control, a blank control and a solvent control are set. Cells are incubated for 72 hours and then CTG method is used for detection.

KU812 = experiment: as above; assay type: cell-based; conditions: KU812 cells
Protocol: as §1

PC-3 = experiment: as above; assay type: cell-based; conditions: PC-3 cells
Protocol: as §1

SUP-B15 = experiment: as above; assay type: cell-based; conditions: SUP-B15 cells
Protocol: as §1

Caco-2 cell monolayer [1] = experiment: Caco-2 cell monolayer transmembrane transport (unidirectional and bidirectional); conditions: for Papp (*10^−6)A→B: Caco-2, A→B; for Papp (*10^−6)A→B / Papp (*10^−6)B→A: 90 min incubation; for Papp (*10^−6)B→A: Caco-2, B→A; for Papp (B→A)/Papp (A→B): Caco-2 efflux ratio, >2 suggests efflux transporter
Protocol: (§2) Wherein dQ is an accumulated penetration amount of a drug receiving pond with a measure unit pmol; dt is incubation time with a measure unit min; A is a diffusion area with a measure unit cm^2; C0 is an initial administration concentration of an administrating pond with a measure unit μmol. L^−1; Papp has a measure unit cm/s.
(§3) An evaluation objective of the bidirectional transport is to preliminary observe that the transmembrane transport of the object to be tested has active transport procedure mediated by an efflux transporter.

[2] = Absolute bioavailability, intravenous vs intragastric administration; assay type: in vivo; conditions: male SD rat, intragastric vs tail intravenous injection
Protocol: Animal: male SD rat Groups of the experiment: intravenous injection group and oral administration group, four rats being provided for each rat Administration manner: tail intravenous injection, intragastric administration Data processing: an area under a curve is calculated for intravenous injection and oral administration by using a trapezoidal method, and a bioavailability is calculated by using the following formula: […]

[3] = Caco-2 cell monolayer transmembrane transport (unidirectional and bidirectional); conditions: human, Caco-2
Protocol: as §2, §3

Caco-2 cell monolayer [4] = tested on: Caco-2 cell monolayer
Protocol: as §2, §3

Work on `Cc1nc(Nc2ncc(C(=O)Nc3c(C)cccc3Cl)s2)cc(N2CCN(CCOCCOCCOCCOCCOCCOCCOCCN3CCN(c4cc(Nc5ncc(C(=O)Nc6c(C)cccc6Cl)s5)nc(C)n4)CC3)CC2)n1` [DSTN-62, Double Endhexaethylene Glycol-dasatinib] yielded an IC50 (K562) of 0.34 nM, a Maximum inhibition rate (K562) of 81.76% and an IC50 (KU812) of 0.49 nM. The Maximum inhibition rate (KU812) was 96.00%, the Maximum inhibition rate (PC-3) was 29.74% and the IC50 (SUP-B15) was 60 nM. For the same compound, the Maximum inhibition rate (SUP-B15) was 81.47%, the “Papp (*10^−6)A→B” value (Caco-2 cell monolayer [1]) was 6.44 ± 0.11 *10^−6 cm/s and the “Papp (*10^−6)B→A” value (Caco-2 cell monolayer [1]) was 15.01 ± 0.59 *10^−6 cm/s. For the same compound, the “Papp (B→A)/Papp (A→B)” value (Caco-2 cell monolayer [1]) was 2.33.
For “Single End Substituted Pentaethyleneglycol-dorzolamide [DZA-01]”, the “Papp (*10^−6)A→B” value (Caco-2 cell monolayer [1]) was 11.54 ± 0.36 *10^−6 cm/s, the “Papp (*10^−6)B→A” value (Caco-2 cell monolayer [1]) was 15.50 ± 0.06 *10^−6 cm/s and the “Papp (B→A)/Papp (A→B)” value (Caco-2 cell monolayer [1]) was 1.34.
`CN(C)CCc1c[nH]c2ccc(CS(=O)(=O)N(C)CCOCCOCCOCCOCCOCCN(C)S(=O)(=O)Cc3ccc4[nH]cc(CCN(C)C)c4c3)cc12` [SMQT-01, Double End-substituted Hexaethyleneglycol-sumatriptan] showed a bioavailability ([2]; blood, oral) of 17%, a Papp A→B at 90 min [3] of 10.6 ± 0.36 ×10⁻⁶ cm/s and a Papp B→A at 90 min [3] of 15.5 ± 0.06 ×10⁻⁶ cm/s. For the same compound, the efflux ratio at 90 min [3] was 1.47.
In the case of `Cc1nc(Nc2ncc(C(=O)Nc3c(C)cccc3Cl)s2)cc(N2CCN(CCOCCOCCOCCOCCOCCN3CCN(c4cc(Nc5ncc(C(=O)Nc6c(C)cccc6Cl)s5)nc(C)n4)CC3)CC2)n1` [DSTN-42, Double End-substituted Tetraethylene Glycol-dasatinib], the IC50 (K562) is reported as 0.5 nM, the Maximum inhibition rate (K562) is reported as 80.34% and the IC50 (KU812) is reported as 0.79 nM. The Maximum inhibition rate (KU812) was 96.91%, the Maximum inhibition rate (PC-3) was 30.97% and the IC50 (SUP-B15) was 50 nM. For the same compound, the Maximum inhibition rate (SUP-B15) was 93.36%, the “Papp (*10^−6)A→B” value (Caco-2 cell monolayer [1]) was 4.57 ± 0.87 *10^−6 cm/s and the “Papp (*10^−6)B→A” value (Caco-2 cell monolayer [1]) was 11.43 ± 0.72 *10^−6 cm/s. The “Papp (B→A)/Papp (A→B)” value (Caco-2 cell monolayer [1]) was 2.50.
For `CN(C)CCc1c[nH]c2ccc(CS(=O)(=O)N(C)CCOCCOCCN(C)S(=O)(=O)Cc3ccc4[nH]cc(CCN(C)C)c4c3)cc12` [SMQT-03, Double End-substituted Triethylene Glycol-sumatriptan], the absolute bioavailability [2] was 25%, the “Papp (*10^−6)A→B” value (Caco-2 cell monolayer [4]) was 6.25 ± 0.51 *10^−6 cm/s and the “Papp (*10^−6)B→A” value (Caco-2 cell monolayer [4]) was 11.06 ± 0.21 *10^−6 cm/s.
In the case of `CCN[C@H]1C[C@H](C)S(=O)(=O)c2sc(S(=O)(=O)NCCOCC(COCCNS(=O)(=O)c3cc4c(s3)S(=O)(=O)[C@@H](C)C[C@@H]4NCC)(COCCNS(=O)(=O)c3cc4c(s3)S(=O)(=O)[C@@H](C)C[C@@H]4NCC)COCCNS(=O)(=O)c3cc4c(s3)S(=O)(=O)[C@@H](C)C[C@@H]4C)cc21` [DZA-06, Four-Branch Ethyleneglycol-dorzolamide Conjugate], the Papp A→B at 90 min [3] is reported as 8.86 ± 0.51 ×10⁻⁶ cm/s, the Papp B→A at 90 min [3] is reported as 18.1 ± 0.32 ×10⁻⁶ cm/s and the efflux ratio at 90 min [3] is reported as 2.05.
In the case of `CN(C)CCc1c[nH]c2ccc(CS(=O)(=O)N(C)CCOCCOCCOCCOCCN(C)S(=O)(=O)Cc3ccc4[nH]cc(CCN(C)C)c4c3)cc12` [SMQT-02, Double End-substituted Pentaethyleneglycol-sumatriptan], the absolute bioavailability [2] is reported as 23%, the “Papp (*10^−6)A→B” value (Caco-2 cell monolayer [4]) is reported as 9.87 ± 0.03 *10^−6 cm/s and the “Papp (*10^−6)B→A” value (Caco-2 cell monolayer [4]) is reported as 14.52 ± 0.12 *10^−6 cm/s.
With `CCN[C@H]1C[C@H](C)S(=O)(=O)c2sc(S(=O)(=O)NCCOCCOCCOCCOCCOCCOCCOCCOCCOCCOCCOCCNS(=O)(=O)c3cc4c(s3)S(=O)(=O)[C@@H](C)C[C@@H]4NCC)cc21` [DZA-03, Double End Substituted Odecylethyleneglycol-dorzolamide] the “Papp (*10^−6)A→B” value (Caco-2 cell monolayer [1]) was 8.96 ± 0.35 *10^−6 cm/s, the “Papp (*10^−6)B→A” value (Caco-2 cell monolayer [1]) was 23.67 ± 0.45 *10^−6 cm/s and the “Papp (B→A)/Papp (A→B)” value (Caco-2 cell monolayer [1]) was 2.64.
In the case of “Double End Substituted Hexaethyleneglycol-dorzolamide [DZA-02]”, the “Papp (*10^−6)A→B” value (Caco-2 cell monolayer [1]) is reported as 12.32 ± 0.34 *10^−6 cm/s, the “Papp (*10^−6)B→A” value (Caco-2 cell monolayer [1]) is reported as 25.50 ± 1.21 *10^−6 cm/s and the “Papp (B→A)/Papp (A→B)” value (Caco-2 cell monolayer [1]) is reported as 2.07.
